Our source for the CC50 and EC50 values is US20120252721A1 (priority 2011, published 2012).

The test system of data set [1] is H1a-luc or Zluc cells. Nature of the data set: in vitro. In kind it is cell-based, human. Particulars: Table 1B, cellular viability. On the procedure: For cytotoxicity evaluation, HPC cells were treated with compounds as described above in the absence of the genotype 2a virus and cellular viability was monitored using the Cell Titer 96 AQueous One Solution Cell Proliferation Assay (Promega). Plates were then read at 490 nm in a Victor^3V 1420 multilabel counter (Perkin Elmer) and CC50 concentrations were determined using Microsoft Excel and XLfit 4.1 software.
For cytotoxicity evaluation, H1a-luc or Zluc cells were treated with compounds as described above and cellular viability was monitored using the Cell Titer 96 AQueous One Solution Cell Proliferation Assay (Promega). Plates were then read at 490 nm in a Victor^3V 1420 multilabel counter (Perkin Elmer) and CC50 concentrations were determined using Microsoft Excel and XLfit 4.1 software.

Data set [2] deals with HCV genotype 1b Con1 strain subgenomic luciferase replicon (Zluc). Kind of data set: Luciferase replicon assay, genotype 1b. It counts as cell-based. To be noted: Hepatitis C virus. The method, then:
(§1) The HCV luciferase replicon assay measures the ability of a test compound to inhibit HCV replication in cell culture after 3 days of treatment in a human hepatoma cell line (Huh-7) bearing an HCV replicon containing a luciferase-neomycin phosphotransferase fusion gene. The inhibition of HCV replication was measured by quantification of luciferase protein expression. Briefly, Huh-7 cells containing either the HCV genotype 1a H77 strain or genotype 1b Con1 strain subgenomic luciferase replicon (H1a-luc or Zluc, respectively) were grown in DMEM containing glucose, L-glutamine and sodium pyruvate, 10% fetal bovine serum (FBS), 100 IU/mL penicillin, 100 μg/mL streptomycin, 2 mM GlutaMAX, non-essential amino acids and 0.25 (H1a-luc) or 0.5 (Zluc) mg/mL G418. GlutaMAX was obtained from Invitrogen, Corp.; all other media reagents were obtained from Mediatech, Inc. For dose-response testing, the cells were seeded in 96-well plates at 1×10^4 (H1a-luc) or 7.5×10^3 (Zluc) cells/well in a volume of 50 μL, and incubated at 37° C./5% CO2. Three hours after plating, 50 μL of ten 5-fold serial dilutions of compound were added, and cell cultures were incubated at 37° C./5% CO2 for 72 hours. In all cases, Huh-7 cells lacking the HCV replicon served as negative control. To assess luciferase expression, the media/compound was removed from the plates and ONE-glo Luciferase assay reagent (Promega) was added to each well. The assay plates were shaken for 3 minutes at room temperature and luciferase activity for each well was measured with a 1 sec read time on the Victor^3V multilabel counter using a 700 nm cut-off filter (Perkin Elmer). EC50 values were calculated from dose response curves from the resulting best-fit equations determined by Microsoft Excel and XLfit 4.1 software.

Data set [3] concerns HCV genotype 1a H77 strain subgenomic luciferase replicon (H1a-luc). Kind of data set: Luciferase replicon assay, genotype 1a. To be noted: Hepatitis C virus, read-out: EC50 1a. In kind it is cell-based. The method, then: (§2) Drug titration analysis was performed using the luciferase replicon assay described herein.
as §1
For orientation: Replicon systems follow genome replication, usually without infectious particles.

The subject of data set [4] is HCV genotype 3a NS5A within the 1b-replicon. Nature of the data set: Luciferase replicon assay, NS5A-intergenotypic stable cell line genotype 3a. It counts as cell-based. Particulars: Hepatitis C virus, read-out: EC50 3a.
From the text: The nucleotide sequences of the NS5A region of genotype 2a (GenBank Accession # AB047639), genotype 3a (GenBank Accession #D17763), and genotype 4a (GenBank Accession# DQ418788) were synthesized by an outside vendor. The NS5A region of each of these genotypes included the first 11 amino acids of the protease recognition sequence of genotype 1b, as well as the last 10 amino acids of genotype 1b. The NS5A gene cassettes were excised with site specific restriction endonucleases and ligated into a ZS11-luciferase genotype 1b backbone (backbone contains the genotype 1b NS3 protease, NS4a, NS4b, and NS5b coding regions) with similarly cut restriction enzyme sites. Thus, the newly constructed plasmid contains a genotype 2a-, 3a- or 4a-specific NS5A gene within the 1b-replicon.
These new intergenotypic plasmids were used to establish stable cell lines. RNA was generated from the NS5A intergenotypic plasmids and used in conjunction with a lipofectin reagent to transfect a cured Huh7 cell line. Transfected cells were selected for with G418. After selection has occurred the stable cell lines were propagated, tested for luciferase activity, and RT-PCR with genotype specific primers (either 1a, 2a, 3a, or 4a). Stable cell lines containing the intergenotypic replicon were then fully sequenced and analyzed for proper expression of NS3, NS5A and NS5B proteins.
as §2, §1

Data set [5] can be described thus: in vitro. Particulars: human; GS4.1 cells, cellular viability. In kind it is cell-based. The method, then: For cytotoxicity evaluation, GS4.1 cells were treated with compounds as described above and cellular viability was monitored using the Cell Titer 96 AQeous One Solution Cell Proliferation Assay (Promega). CC50 values were determined from the % cytotoxicity versus concentration data with Tecan Magellan software as described above.

In data set [6] the test system is HCV Con1 subgenomic replicon (GS4.1 cells). Nature of the data set: HCV replicon assay (NS5A ELISA, 72 hrs). In kind it is cell-based. To be noted: Hepatitis C virus. The method, then: Huh-7 cells containing HCV Con1 subgenomic replicon (GS4.1 cells) were grown in Dulbecco's Modified Eagle Medium (DMEM) supplemented with 10% fetal bovine serum (FBS), 2 mM L-glutamine, 110 mg/L sodium pyruvate, 1× non-essential amino acids, 100 U/mL penicillin-streptomycin, and 0.5 mg/mL G418 (Invitrogen). For dose-response testing, the cells were seeded in 96-well plates at 7.5×10^3 cells/well in a volume of 50 μL, and incubated at 37° C./5% CO2. Three hours after plating, 50 μL often 2-fold serial dilutions of compounds (highest concentration, 75 μM) were added, and cell cultures were incubated at 37° C./5% CO2 in the presence of 0.5% DMSO. Alternatively, compounds were tested at a single concentration of 15 μM. In all cases, Huh-7 cells lacking the HCV replicon served as negative control. The cells were incubated in the presence of compounds for 72 hrs after which they were monitored for expression of the NS5A protein by enzyme-linked immunosorbent assay (ELISA). For this, the plates were then fixed for 1 min with acetone/methanol (1:1, v/v), washed twice with phosphate-buffered saline (PBS), 0.1% Tween 20, blocked for 1 hr at room temperature with TNE buffer containing 10% FBS and then incubated for 2 hr at 37° C. with the anti-NS5A mouse monoclonal antibody A-236 (ViroGen) diluted in the same buffer. After washing three times with PBS, 0.1% Tween 20, the cells were incubated 1 hr at 37° C. with anti-mouse immunoglobulin G-peroxidase conjugate in TNE, 10% FBS. After washing as described above, the reaction was developed with O-phenylenediamine (Zymed). The reaction was stopped after 30 min with 2 NH2SO4, and absorbance was read at 492 nm using Sunrise Tecan spectrophotometer. EC50 values were determined from the % inhibition versus concentration data using a sigmoidal non-linear regression analysis based on four parameters with Tecan Magellan software.

Where only a bound is given, the exact number is not on record here.

Broadly, the CC50 is the concentration that lowers cell viability or growth by half. Lower therefore signals harm at low concentration. A word on the EC50: it is the concentration needed to bring the measured effect to its halfway point. As to `COC(=O)N[C@H](C(=O)N1CCC[C@H]1c1ncc(-c2ccc(-c3cc4sc(-c5cnc([C@@H]6CCCN6C(=O)[C@@H](NC(=O)OC)C(C)C)[nH]5)cc4s3)cc2)[nH]1)C(C)C` [Compound A126, [(S)-1-((S)-2-{5-[4-(5-{2-[(S)-1-((S)-2-Methoxycarbonylamino-3-methyl-butyryl)-pyrrolidin-2-yl]-3H-imidazol-4-yl}-thieno[3,2-b]thiophen-2-yl)-phenyl]-1H-imidazol-2-yl}-pyrrolidine-1-carbonyl)-2-methyl-propyl]-carbamic acid methyl ester], the CC50 in data set [1] and in data set [5] was > 75000 nM each time. In addition, the EC50 in data set [2] was < 0.1 nM; in data set [3], < 0.1 nM; in data set [4], 1 to 10 nM; in data set [6], < 1 nM.

In data set [5], `COC(=O)N[C@H](C(=O)N1CCCC1c1ncc(-c2ccc(-c3cc4sc(Br)cc4s3)cc2)[nH]1)C(C)C` (some centres unmarked) [Compound A168] returned a 50% cytotoxic concentration (CC50) of 10000 to 75000 nM. The compound further had an EC50 in data set [6] of 10 to 100 nM.

Take `COC(=O)N[C@H](C(=O)N1CCC[C@H]1c1ncc(-c2ccc(-c3csc4c(-c5ccc6[nH]c([C@@H]7CCCN7C(=O)[C@@H](NC(=O)OC)C(C)C)nc6c5)csc34)cc2)[nH]1)C(C)C` [Compound A171, [(S)-1-((S)-2-{4-[4-(6-{2-[(S)-1-((S)-2-methoxycarbonylamino-3-methyl-butyryl)-pyrrolidin-2-yl]-3H-benzoimidazol-5-yl}-thieno[3,2-b]thiophen-3-yl)-phenyl]-1H-imidazol-2-yl}-pyrrolidine-1-carbonyl)-2-methyl-propyl]-carbamic acid methyl ester]: the CC50 in data set [1] is > 75000 nM. Also, the concentration for a half-maximal effect (EC50) in data set [2] is < 0.1 nM; in data set [3], < 0.1 nM; in data set [4], 1 to 10 nM.

On to `COC(=O)N[C@H](C(=O)N1CCC[C@H]1c1ncc(-c2ccc(-c3csc4c(-c5cnc([C@@H]6CCCN6C(=O)[C@H](NC(=O)OC)c6ccccc6)[nH]5)csc34)cc2)[nH]1)C(C)C` [Compound A200, [(S)-1-((S)-2-{4-[4-(6-{2-[(S)-1-((R)-2-methoxycarbonylamino-2-phenyl-acetyl)-pyrrolidin-2-yl]-3H-imidazol-4-yl}-thieno[3,2-b]thiophen-3-yl)-phenyl]-1H-imidazol-2-yl}-pyrrolidine-1-carbonyl)-2-methyl-propyl]-carbamic acid methyl ester], for which the half-maximal cytotoxic concentration (CC50) in data set [1] is > 75000 nM. The EC50 in data set [2] was < 0.1 nM; in data set [3] it was 0.1 to 1 nM.

`COC(=O)N[C@H](C(=O)N1CCCC1c1nc(-c2cc3sc(-c4ccc(-c5cnc([C@@H]6CCCN6C(=O)[C@@H](c6ccccc6)N6CCCCC6)[nH]5)cc4)cc3o2)c[nH]1)C(C)C` (some centres unmarked) [Compound A212]: in data set [1], the 50% cytotoxic concentration (CC50) lay in the range of 10000 to 75000 nM. Also, the EC50 in data set [2] and in data set [3] was < 0.1 nM throughout.

As for `COC(=O)N[C@H](C(=O)N1CCCC1c1ncc(-c2ccc(-n3ccc4c(-c5cnc(C6CCCN6C(=O)[C@@H](NC(=O)OC)C(C)C)[nH]5)csc43)c(Cl)c2)[nH]1)C(C)C` (some centres unmarked) [Compound A213], the EC50 in data set [2] was < 0.1 nM; in data set [3], 0.1 to 1 nM.

Regarding `COC(=O)N[C@H](C(=O)N1CCC[C@H]1c1nc2ccc(-c3cc4sc(-c5ccc(-c6c[nH]c([C@@H]7CCCN7C(=O)[C@H](NC(=O)OC)c7ccccc7)n6)cc5)cc4s3)cc2[nH]1)C(C)C` [Compound A215, [(S)-1-((S)-2-{6-[5-(4-{(S)-2-[1-((R)-2-methoxycarbonylamino-2-phenyl-acetyl)-pyrrolidin-2-yl]-1H-imidazol-4-yl}-phenyl)-thieno[3,2-b]thiophen-2-yl)-1H-benzoimidazol-2-yl}-pyrrolidine-1-carbonyl)-2-methyl-propyl]-carbamic acid methyl ester], in data set [1], the half-maximal cytotoxic concentration (CC50) was > 75000 nM. The 50% effective concentration (EC50) in data set [2] and in data set [3] was < 0.1 nM each time.

For the compound `COC(=O)N[C@H](C(=O)N1CCCC1c1ncc(-c2cc3sc(-c4ccc(-c5cnc([C@@H]6CCCN6C(=O)[C@H](NC(=O)OC)c6ccccc6)[nH]5)cc4)cc3s2)[nH]1)C(C)C` (some centres unmarked) [Compound A217], the CC50 in data set [1] was > 75000 nM. In addition, the EC50 in data set [2] and in data set [3] was < 0.1 nM each time.
